Like-named read-outs stand apart in the source and are kept apart here.
Biological target: T1, VAV1 (Homo sapiens, UniProt P15498+Q96SW2)
T1 construct: A heterozygous VAV1 C-terminal HiBiT knock-in pool was generated at Monte Rosa Therapeutics from a clonal Jurkat cell; endogenous in cells; host or cells: Jurkat clone stably expressing LgBiT, homozygous GSPT1-G575N; heterozygous VAV1-HiBiT knock-in pool
Test: VAV1 degradation activity, VAV1-HiBiT knock-in Jurkat luminescence assay (Example A, Table 1)
Assay type: cell-based
Details: VAV1-HiBiT knock-in Jurkat cells, luminescence read at 6 and 24 hours; for Dmax: Jurkat
Method in brief: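 Luminescence was measured at 6 and 24 h after adding compound (10 μM stock) to VAV1-HiBiT knock-in Jurkat cells, which had been pre-incubated ~16 h at 37° C. in RPMI/10% FBS containing Endurazine. EC50 values came from control-normalised responses fitted to a 3-parameter logistic model with hillslope fixed at 1.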

[1] = read-out: VAV1 DC50 (nM), class

Row | SMILES | Dmax (read-out: VAV1 Dmax %) | Dmax (read-out: VAV1 Dmax %, class) | DC50 (read-out: VAV1 DC50) | DC50 [1]
1 | CN1CCCN(c2ccc(-c3cccc(C4CCC(=O)NC4=O)c3Cl)cn2)C1=O (stereo not shown) [Compound 435, 3-(2-chloro-3-(6-(3-methyl-2-oxotetrahydropyrimidin-1(2H)-yl)pyridin-3-yl)phenyl)piperidine-2,6-dione] | 70.8% | 60 to 90% | 330 nM | 100 to 1000 nM
2 | CN1CCCN(c2ccc(-c3cccc(C4CCC(=O)NC4=O)c3Cl)cc2F)C1=O (stereo not shown) [Compound 436, 3-(2-chloro-3′-fluoro-4′-(3-methyl-2-oxotetrahydropyrimidin-1(2H)-yl)-[1,1′-biphenyl]-3-yl)piperidine-2,6-dione] | 96% | > 90% | 8.75 nM | ≤ 100 nM
3 | Cc1ccnc(Cc2ccc(-c3cccc(C4CCC(=O)NC4=O)c3Cl)cc2)n1 (stereo not shown) [Compound 437, 3-(2-chloro-4′-((4-methylpyrimidin-2-yl)methyl)-[1,1′-biphenyl]-3-yl)piperidine-2,6-dione] | 96.5% | > 90% | 5.92 nM | ≤ 100 nM
4 | O=C1CCC(c2cccc(-c3ccc(S(=O)(=O)N4CCCC4)cc3)c2Cl)C(=O)N1 (stereo not shown) [Compound 438, 3-(2-chloro-4′-(pyrrolidin-1-ylsulfonyl)-[1,1′-biphenyl]-3-yl) piperidine-2,6-dione] | 90.5% | > 90% | 91.7 nM | ≤ 100 nM
5 | CN1Cc2cccc(-c3ccc(-c4cccc(C5CCC(=O)NC5=O)c4Cl)cc3)c2C1=O (stereo not shown) [Compound 439, 3-(2-chloro-4′-(2-methyl-3-oxoisoindolin-4-yl)-[1,1′-biphenyl]-3-yl)piperidine-2,6-dione] | 89.3% | 60 to 90% | 4.48 nM | ≤ 100 nM
6 | CC1(Cc2ccc(-c3cccc(C4CCC(=O)NC4=O)c3Cl)cc2)COC1 (stereo not shown) [Compound 440, 3-(2-chloro-4′-((3-methyloxetan-3-yl)methyl)-[1,1′-biphenyl]-3-yl)piperidine-2,6-dione] | 94.3% | > 90% | 21.7 nM | ≤ 100 nM
7 | C[C@@H]1COCC(=O)N1c1ccc(-c2cccc(C3CCC(=O)NC3=O)c2Cl)cc1 (stereo partly drawn) [Compound 441, 3-(2-chloro-4′-((R)-3-methyl-5-oxomorpholino)-[1,1′-biphenyl]-3-yl)piperidine-2,6-dione] | 90.5% | > 90% | 14.2 nM | ≤ 100 nM
8 | O=C1CCC(c2cccc(-c3ccc(Cc4cocn4)cc3)c2Cl)C(=O)N1 (stereo not shown) [Compound 442, 3-(2-chloro-4′-(oxazol-4-ylmethyl)-[1,1′-biphenyl]-3-yl)piperidine-2,6-dione] | 95.8% | > 90% | 34.5 nM | ≤ 100 nM
9 | O=C1CCC(c2cccc(-c3ccc(-n4c(C(F)(F)F)cccc4=O)cc3)c2Cl)C(=O)N1 (stereo not shown) [Compound 443, 3-(2-chloro-4′-(2-oxo-6-(trifluoromethyl)pyridin-1(2H)-yl)-[1,1′-biphenyl]-3-yl)piperidine-2,6-dione] | 99.3% | > 90% | 2.27 nM | ≤ 100 nM
10 | O=C1CCC(c2cccc(-c3ccc(-n4cccc(CC(F)F)c4=O)cc3)c2Cl)C(=O)N1 (stereo not shown) [Compound 444, 3-(2-chloro-4′-(3-(2,2-difluoroethyl)-2-oxopyridin-1(2H)-yl)-[1,1′-biphenyl]-3-yl)piperidine-2,6-dione] | 97.7% | > 90% | 7.1 nM | ≤ 100 nM
11 | O=C1CCC(c2cccc(-c3ccc(N4CCN(CC(F)(F)F)CC4=O)cc3)c2Cl)C(=O)N1 (stereo not shown) [Compound 445, 3-(2-chloro-4′-(2-oxo-4-(2,2,2-trifluoroethyl)piperazin-1-yl)-[1,1′-biphenyl]-3-yl)piperidine-2,6-dione] | 96% | > 90% | 11.5 nM | ≤ 100 nM
12 | O=C1CCC(c2cccc(-c3ccc(N4CCN(CC(F)F)CC4=O)cc3)c2Cl)C(=O)N1 (stereo not shown) [Compound 446, 3-(2-chloro-4′-(4-(2,2-difluoroethyl)-2-oxopiperazin-1-yl)-[1,1′-biphenyl]-3-yl)piperidine-2,6-dione] | 95.2% | > 90% | 9.83 nM | ≤ 100 nM
13 | O=C1CCC(c2cccc(-c3ccc(Cn4ccccc4=O)nc3)c2Cl)C(=O)N1 (stereo not shown) [Compound 447, 3-(2-chloro-3-(6-((2-oxopyridin-1(2H)-yl)methyl)pyridin-3-yl)phenyl)piperidine-2,6-dione] | 61.9% | 60 to 90% | 741 nM | 100 to 1000 nM
14 | Cc1ccn(C)c(=O)c1-c1ccc(-c2cccc(C3CCC(=O)NC3=O)c2Cl)cc1 (stereo not shown) [Compound 448, 3-(2-chloro-4′-(1,4-dimethyl-2-oxo-1,2-dihydropyridin-3-yl)-[1,1′-biphenyl]-3-yl)piperidine-2,6-dione] | 98.7% | > 90% | 1.63 nM | ≤ 100 nM
15 | O=C1CCC(c2cccc(-c3ccc(N4CCCN(CC(F)(F)F)C4=O)cc3)c2Cl)C(=O)N1 (stereo not shown) [Compound 449, 3-(2-chloro-4′-(2-oxo-3-(2,2,2-trifluoroethyl)tetrahydropyrimidin-1(2H)-yl)-[1,1′-biphenyl]-3-yl)piperidine-2,6-dione] | 97% | > 90% | 6.45 nM | ≤ 100 nM
16 | O=C1CCC(c2cccc(-c3ccc(N4CCCCC4=O)nc3)c2Cl)C(=O)N1 (stereo not shown) [Compound 450, 3-(2-chloro-3-(6-(2-oxopiperidin-1-yl)pyridin-3-yl)phenyl)piperidine-2,6-dione] | 75.9% | 60 to 90% | 173 nM | 100 to 1000 nM
17 | O=C1CCC(c2cccc(-c3ccc(N4CCCOC4=O)nc3)c2Cl)C(=O)N1 (stereo not shown) [Compound 451, 3-(2-chloro-3-(6-(2-oxo-1,3-oxazinan-3-yl)pyridin-3-yl)phenyl)piperidine-2,6-dione] | 64% | 60 to 90% | 542 nM | 100 to 1000 nM
18 | O=C1CCC(c2cccc(-c3ccc(N4CCCOC4=O)c(F)c3)c2Cl)C(=O)N1 (stereo not shown) [Compound 452, 3-(2-chloro-3′-fluoro-4′-(2-oxo-1,3-oxazinan-3-yl)-[1,1′-biphenyl]-3-yl)piperidine-2,6-dione] | 94% | > 90% | 21.5 nM | ≤ 100 nM
19 | O=C1CCC(c2cccc(-c3ccc(Cc4cccnn4)cc3)c2Cl)C(=O)N1 (stereo not shown) [Compound 453, 3-(2-chloro-4′-(pyridazin-3-ylmethyl)-[1,1′-biphenyl]-3-yl)piperidine-2,6-dione] | 97.8% | > 90% | 13.4 nM | ≤ 100 nM
20 | CN1CC(Cc2ccc(-c3cccc(C4CCC(=O)NC4=O)c3Cl)cc2)OC1=O (stereo not shown) [Compound 454, 3-(2-chloro-4′-((3-methyl-2-oxooxazolidin-5-yl)methyl)-[1,1′-biphenyl]-3-yl)piperidine-2,6-dione] | 68.3% | 60 to 90% | 140 nM | 100 to 1000 nM
21 | O=C1CCC(c2cccc(-c3ccc(Cc4ccon4)cc3)c2Cl)C(=O)N1 (stereo not shown) [Compound 455, 3-(2-chloro-4′-(isoxazol-3-ylmethyl)-[1,1′-biphenyl]-3-yl)piperidine-2,6-dione] | 95.5% | > 90% | 15.2 nM | ≤ 100 nM
22 | O=C1CCC(c2cccc(-c3ccc(N4Cc5ccccc5C4=O)cc3)c2Cl)C(=O)N1 (stereo not shown) [Compound 456, 3-(2-chloro-4′-(1-oxoisoindolin-2-yl)-[1,1′-biphenyl]-3-yl)piperidine-2,6-dione] | 61% | 60 to 90% | 1560 nM | > 1000 nM
23 | O=C1CCC(c2cccc(-c3ccc(N4C(=O)CCC45CCC5)cc3)c2Cl)C(=O)N1 (stereo not shown) [Compound 457, 3-(2-chloro-4′-(6-oxo-5-azaspiro[3.4]octan-5-yl)-[1,1′-biphenyl]-3-yl)piperidine-2,6-dione] | 98.2% | > 90% | 2.78 nM | ≤ 100 nM
24 | O=C1CCC(c2cccc(-c3ccc(-c4cccn(CC(F)(F)F)c4=O)cc3)c2Cl)C(=O)N1 (stereo not shown) [Compound 458, 3-(2-chloro-4′-(2-oxo-1-(2,2,2-trifluoroethyl)-1,2-dihydropyridin-3-yl)-[1,1′-biphenyl]-3-yl)piperidine-2,6-dione] | 98.6% | > 90% | 4.79 nM | ≤ 100 nM
25 | O=C1CCC(c2cccc(-c3ccc(N4CCCCC4)cc3)c2Cl)C(=O)N1 (stereo not shown) [Compound 459, 3-(2-chloro-4′-(piperidin-1-yl)-[1,1′-biphenyl]-3-yl)piperidine-2,6-dione] | 84.4% | 60 to 90% | 122 nM | 100 to 1000 nM
26 | O=C1CCC(c2cccc(-c3ccc(-c4cccc5ocnc45)cc3)c2Cl)C(=O)N1 (stereo not shown) [Compound 460, 3-(4′-(benzo[d]oxazol-4-yl)-2-chloro-[1,1′-biphenyl]-3-yl)piperidine-2,6-dione] | 89.9% | 60 to 90% | 277 nM | 100 to 1000 nM
27 | O=C1CCC(c2cccc(-c3ccc(N4CCCCC4=O)c(F)c3)c2Cl)C(=O)N1 (stereo not shown) [Compound 461, 3-(2-chloro-3′-fluoro-4′-(2-oxopiperidin-1-yl)-[1,1′-biphenyl]-3-yl)piperidine-2,6-dione] | 96.2% | > 90% | 10.1 nM | ≤ 100 nM
28 | [2H]c1c([2H])c(-n2ccccc2=O)c([2H])c([2H])c1-c1cccc(C2CCC(=O)NC2=O)c1Cl (stereo not shown) [Compound 462, 3-(2-chloro-3-(2,3,5,6-tetradeuterio-4-(2-oxo-1-pyridyl)phenyl)phenyl)piperidine-2,6-dione] | 95.5% | > 90% | 14.8 nM | ≤ 100 nM
